Experimental findings from PubChem BioAssay AID220 (DTP/NCI, 2004) are described below.

For this assay, the system named is CD8F1 mice, subcutaneous mammary adenocarcinoma, T/C%. Briefly: NCI In Vivo Anticancer Drug Screen. Data for tumor model Mammary Adenocarcinoma CD8F1 (subcutaneous) in CD8F1. The following applies: higher = larger tumour. The protocol:
The antitumor activity of compounds was measured in mice bearing transplantable tumors. Survival or tumor size were measured and the results are expressed as the measurement made in the treated group (T) divided by the measurement made in the vehicle treated control group (C). The tumor model used in this assay is Mammary Adenocarcinoma CD8F1 (subcutaneous) in CD8F1

The structures appear in SMILES notation. Several values for one entry are separate records, joined by “and”; a condition that tells them apart may be missing. Equal values may be shown once. Inconclusive results are not listed.

`COC(=O)C[C@](O)(CCCC(C)(C)O)C(=O)O[C@@H]1C(OC)=C[C@]23CCCN2CCc2cc4c(cc2[C@H]13)OCO4`: the T/C by setting is: (endpoint: median tumor weight (est.), dose: 0.25 mg/kg/injection, schedule: Q07DX005 (ip), vehicle: saline) 59 % of control; (endpoint: median tumor weight (est.), dose: 0.5 mg/kg/injection, schedule: Q07DX005 (ip), vehicle: saline) 57 % of control and 60 % of control; (endpoint: median tumor weight (est.), dose: 1.0 mg/kg/injection, schedule: Q07DX005 (ip), vehicle: saline) 61 % of control and 78 % of control; (endpoint: median tumor weight (est.), dose: 2.0 mg/kg/injection, schedule: Q07DX005 (ip), vehicle: saline) 14 % of control and 21 % of control; (endpoint: median tumor weight (est.), dose: 4.0 mg/kg/injection, schedule: Q07DX005 (ip), vehicle: saline) 7 % of control.
With `C(=N/NC1=NCCN1)/c1c2ccccc2c(/C=N\NC2=NCCN2)c2ccccc12`, the T/C is 78 % of control (endpoint: median tumor weight change, dose: 25.0 mg/kg/injection, schedule: Q01DX001 (ip), vehicle: saline); 101 % of control (endpoint: median tumor weight change, dose: 50.0 mg/kg/injection, schedule: Q01DX001 (ip), vehicle: saline); 37 % of control (endpoint: median tumor weight change, dose: 100.0 mg/kg/injection, schedule: Q01DX001 (ip), vehicle: saline).
Regarding `OCC(O)C(O)C(O)C(O)CO` (configuration not stated), the T/C is, setting by setting: (endpoint: median tumor weight change, dose: 75.0 mg/kg/injection, schedule: Q01DX001 (ip), vehicle: saline) 20 % of control; (endpoint: median tumor weight change, dose: 150.0 mg/kg/injection, schedule: Q01DX001 (ip), vehicle: saline) 40 % of control; (endpoint: median tumor weight change, dose: 300.0 mg/kg/injection, schedule: Q01DX001 (ip), vehicle: saline) 39 % of control; (endpoint: median tumor weight change, dose: 600.0 mg/kg/injection, schedule: Q01DX001 (ip), vehicle: saline) 32 % of control; (endpoint: median tumor weight change, dose: 1200.0 mg/kg/injection, schedule: Q01DX001 (ip), vehicle: saline) 45 % of control.
For the compound `COc1cc2c(c(OC)c1OC)-c1c(cc3c(c1OC)OCO3)CC(C)C(C)(O)C2OC(=O)c1ccccc1` (configuration not stated), the T/C (endpoint: median tumor weight change, dose: 31.0 mg/kg/injection, schedule: Q01DX001 (ip), vehicle: saline + Tween-80 + alcohol) is 93 % of control; the T/C (endpoint: median tumor weight change, dose: 125.0 mg/kg/injection, schedule: Q01DX001 (ip), vehicle: saline + Tween-80 + alcohol) was 121 % of control; the T/C (endpoint: median tumor weight change, dose: 250.0 mg/kg/injection, schedule: Q01DX001 (ip), vehicle: saline + Tween-80 + alcohol) was 95 % of control; the T/C (endpoint: median tumor weight change, dose: 500.0 mg/kg/injection, schedule: Q01DX001 (ip), vehicle: saline + Tween-80 + alcohol) is 110 % of control; the T/C (endpoint: median tumor weight change, dose: 900.0 mg/kg/injection, schedule: Q01DX001 (ip), vehicle: saline + alcohol) was 96 % of control; the T/C (endpoint: median tumor weight change, dose: 1800.0 mg/kg/injection, schedule: Q01DX001 (ip), vehicle: saline + alcohol) is 124 % of control. For the same compound, the T/C (endpoint: median tumor weight change, dose: 3600.0 mg/kg/injection, schedule: Q01DX001 (ip), vehicle: saline + alcohol) was 59 % of control.
For the compound `CC(=O)Nc1ccc(C(=O)C=O)cc1`, the T/C by setting is: (endpoint: median tumor weight (est.), dose: 12.5 mg/kg/injection, schedule: Q07DX005 (ip), vehicle: saline with Tween-80) 114 % of control; (endpoint: median tumor weight (est.), dose: 25.0 mg/kg/injection, schedule: Q07DX005 (ip), vehicle: saline with Tween-80) 117 % of control; (endpoint: median tumor weight (est.), dose: 50.0 mg/kg/injection, schedule: Q07DX005 (ip), vehicle: saline with Tween-80) 84 % of control; (endpoint: median tumor weight (est.), dose: 100.0 mg/kg/injection, schedule: Q07DX005 (ip), vehicle: saline with Tween-80) 93 % of control; (endpoint: median tumor weight (est.), dose: 200.0 mg/kg/injection, schedule: Q07DX005 (ip), vehicle: saline with Tween-80) 80 % of control.
`COC(=O)[C@@]12OC[C@]34[C@H]([C@@H](O)[C@@H]1O)[C@@]1(C)CC(=O)C(O)=C(C)[C@@H]1C[C@H]3OC(=O)[C@H](OC(=O)/C=C(/C)C(C)(C)O)[C@@H]24`: the T/C is 92 % of control (endpoint: median tumor weight (est.), dose: 0.05 mg/kg/injection, schedule: Q07DX005 (ip), vehicle: saline); 88 % of control (endpoint: median tumor weight (est.), dose: 0.1 mg/kg/injection, schedule: Q07DX005 (ip), vehicle: saline); 67 % of control (endpoint: median tumor weight (est.), dose: 0.2 mg/kg/injection, schedule: Q07DX005 (ip), vehicle: saline); 100 % of control (endpoint: median tumor weight (est.), dose: 0.4 mg/kg/injection, schedule: Q07DX005 (ip), vehicle: saline); 90 % of control (endpoint: median tumor weight (est.), dose: 0.8 mg/kg/injection, schedule: Q07DX005 (ip), vehicle: saline).
Take `Brc1c(NC2=NCCN2)ccc2nccnc12`: the T/C is, setting by setting: (endpoint: median tumor weight change, dose: 15.6 mg/kg/injection, schedule: Q01DX001 (ip), vehicle: saline) 52 % of control; (endpoint: median tumor weight change, dose: 31.25 mg/kg/injection, schedule: Q01DX001 (ip), vehicle: saline) 77 % of control; (endpoint: median tumor weight change, dose: 62.5 mg/kg/injection, schedule: Q01DX001 (ip), vehicle: saline) 81 % of control; (endpoint: median tumor weight change, dose: 125.0 mg/kg/injection, schedule: Q01DX001 (ip), vehicle: saline) 92 % of control; (endpoint: median tumor weight change, dose: 250.0 mg/kg/injection, schedule: Q01DX001 (ip), vehicle: saline) 53 % of control.
`CCC(C)Nc1ccc(N)cc1` (configuration not stated): the T/C runs as follows: (endpoint: median tumor weight (est.), dose: 0.18 mg/kg/injection, schedule: Q07DX005 (ip), vehicle: Klucel (hydroxypropylcellulose) (HPC)) 90 % of control; (endpoint: median tumor weight (est.), dose: 0.37 mg/kg/injection, schedule: Q07DX005 (ip), vehicle: Klucel (hydroxypropylcellulose) (HPC)) 92 % of control; (endpoint: median tumor weight (est.), dose: 0.75 mg/kg/injection, schedule: Q07DX005 (ip), vehicle: Klucel (hydroxypropylcellulose) (HPC)) 86 % of control; (endpoint: median tumor weight (est.), dose: 1.5 mg/kg/injection, schedule: Q07DX005 (ip), vehicle: Klucel (hydroxypropylcellulose) (HPC)) 107 % of control; (endpoint: median tumor weight change, dose: 0.2 mg/kg/injection, schedule: Q01DX001 (ip), vehicle: Klucel (hydroxypropylcellulose) (HPC)) 123 % of control; (endpoint: median tumor weight change, dose: 0.37 mg/kg/injection, schedule: Q01DX001 (ip), vehicle: Klucel (hydroxypropylcellulose) (HPC)) 93 % of control. The T/C runs as follows: (endpoint: median tumor weight change, dose: 0.75 mg/kg/injection, schedule: Q01DX001 (ip), vehicle: Klucel (hydroxypropylcellulose) (HPC)) 89 % of control; (endpoint: median tumor weight change, dose: 1.5 mg/kg/injection, schedule: Q01DX001 (ip), vehicle: Klucel (hydroxypropylcellulose) (HPC)) 101 % of control; (endpoint: median tumor weight change, dose: 3.0 mg/kg/injection, schedule: Q01DX001 (ip), vehicle: Klucel (hydroxypropylcellulose) (HPC)) 119 % of control.
For the compound `COc1cc(C(=O)c2cc3c(cc2C)OCO3)cc(OC)c1OC`, the T/C reads like this: (endpoint: median tumor weight change, dose: 125.0 mg/kg/injection, schedule: Q01DX001 (ip), vehicle: Klucel (hydroxypropylcellulose) (HPC)) 59 % of control and 75 % of control; (endpoint: median tumor weight change, dose: 250.0 mg/kg/injection, schedule: Q01DX001 (ip), vehicle: Klucel (hydroxypropylcellulose) (HPC)) 47 % of control and 54 % of control; (endpoint: median tumor weight change, dose: 500.0 mg/kg/injection, schedule: Q01DX001 (ip), vehicle: Klucel (hydroxypropylcellulose) (HPC)) 70 % of control.
As to `O=C(O)C(O)C(O)C1[O][Sb][O]C1C(=O)O` (configuration not stated), the T/C runs as follows: (endpoint: median tumor weight change, dose: 31.0 mg/kg/injection, schedule: Q01DX001 (ip), vehicle: saline) 115 % of control; (endpoint: median tumor weight change, dose: 62.0 mg/kg/injection, schedule: Q01DX001 (ip), vehicle: saline) 93 % of control.
Regarding `NC(=O)c1ncn(C2OC(CO)C(O)C2O)c1O` (configuration not stated), the T/C (endpoint: median tumor weight (est.), dose: 50.0 mg/kg/injection, schedule: Q07DX005 (ip), vehicle: Klucel (hydroxypropylcellulose) (HPC)) is 85 % of control; the T/C (endpoint: median tumor weight (est.), dose: 100.0 mg/kg/injection, schedule: Q07DX005 (ip), vehicle: Klucel (hydroxypropylcellulose) (HPC)) was 105 % of control; the T/C (endpoint: median tumor weight (est.), dose: 200.0 mg/kg/injection, schedule: Q07DX005 (ip), vehicle: Klucel (hydroxypropylcellulose) (HPC)) is 72 % of control; the T/C (endpoint: median tumor weight (est.), dose: 400.0 mg/kg/injection, schedule: Q07DX005 (ip), vehicle: Klucel (hydroxypropylcellulose) (HPC)) was 83 % of control.
Take `N/C=N/O`: the T/C runs as follows: (endpoint: median tumor weight (est.), dose: 25.0 mg/kg/injection, schedule: Q07DX005 (ip), vehicle: saline) 109 % of control; (endpoint: median tumor weight (est.), dose: 50.0 mg/kg/injection, schedule: Q07DX005 (ip), vehicle: saline) 181 % of control; (endpoint: median tumor weight (est.), dose: 100.0 mg/kg/injection, schedule: Q07DX005 (ip), vehicle: saline) 164 % of control; (endpoint: median tumor weight (est.), dose: 200.0 mg/kg/injection, schedule: Q07DX005 (ip), vehicle: saline) 105 % of control; (endpoint: median tumor weight (est.), dose: 400.0 mg/kg/injection, schedule: Q07DX005 (ip), vehicle: saline) 97 % of control; (endpoint: median tumor weight (est.), dose: 600.0 mg/kg/injection, schedule: Q07DX005 (ip), vehicle: saline) 78 % of control.
Turning to `[O-][n+]1c(CN2CCCCC2)nc2cccc3c2c1-c1ccccc1-3`, the T/C is, setting by setting: (endpoint: median tumor weight change, dose: 125.0 mg/kg/injection, schedule: Q01DX001 (ip), vehicle: saline with Tween-80) 78 % of control; (endpoint: median tumor weight change, dose: 250.0 mg/kg/injection, schedule: Q01DX001 (ip), vehicle: saline with Tween-80) 104 % of control; (endpoint: median tumor weight change, dose: 500.0 mg/kg/injection, schedule: Q01DX001 (ip), vehicle: saline with Tween-80) 84 % of control.
